# Measurements: patent US20210330611A1, “THERAPY FOR NEUROLOGICAL DISEASES/DISORDERS” (priority 2020, published 2021)
# Like-named read-outs stand apart in the source and are kept apart here.
# How the values were obtained:
# [1] = test system: fibrin-induced microglia activation; test: Image-based assay of fibrin-induced microglia activation (HTS and dose response); type: cell-based, rat; conditions: for inhibition at 10 µM: Rattus norvegicus, Microglia, read-out: Fibrin % inhibition
# [2] = test system: LPS-induced microglia activation; test: Image-based assay of LPS-induced microglia activation (HTS and dose response); type: cell-based, rat; conditions: for inhibition at 10 µM: Rattus norvegicus, Microglia, read-out: LPS % inhibition
# [3] = test system: fibrin- and LPS-induced microglia activation; test: cells; type: cell-based, rat
# primary rat microglia [4] = test: Cell toxicity (dead cells, size <150 μm2) in LPS assay
# primary rat microglia [5] = test: Cell toxicity (dead cells, size <150 μm2) in coated fibrin (cFib) assay;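 note: share of dead cells sized under 150 µm2 at 10 µM in fibrin-stimulated microglia HTS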
# [6] = primary microglia HTS, 10 μM, fibrin-stimulated, cell size >800 μm^2 as marker of activation
# [7] = primary microglia HTS, 10 μM, LPS-stimulated, cell size >800 μm^2 as marker of activation
# [8] = HTS of 1907 compounds, quadrant by fibrin and LPS inhibition
# [9] = primary microglia HTS, 10 μM, LPS assay, cell size <150 μm^2 as marker of toxicity
# [10] = primary microglia HTS, 10 μM, fibrin assay, cell size <150 μm^2 as marker of toxicity
# [11] = primary microglia HTS, fibrin stimulation, increased cell size (>800 μm^2) as marker of activation
# [12] = primary microglia HTS, LPS stimulation, increased cell size (>800 μm^2) as marker of activation
# [13] = quadrant by fibrin and LPS inhibition in HTS of 1907 compounds
# [14] = primary microglia HTS, LPS stimulation, decreased size (<150 μm^2) as marker of toxicity
# [15] = primary microglia HTS, fibrin stimulation, decreased size (<150 μm^2) as marker of toxicity
# [16] = 48 h, primary microglia HTS, LPS stimulation, increased cell size (>800 μm^2) as marker of activation
# [17] = primary microglia HTS, fibrin stimulation, activation = cell size >800 μm2
# [18] = 48 h, primary microglia HTS, LPS stimulation, activation = cell size >800 μm2
# [19] = primary microglia HTS, LPS stimulation, toxicity = cell size <150 μm2
# [20] = primary microglia HTS, fibrin stimulation, toxicity = cell size <150 μm2
compound,measurement,setting,value
Cc1c(C)c2c(c(C)c1O)CCC(C)(COc1ccc(CC3SC(=O)NC3=O)cc1)O2 (stereo not drawn) [Troglitazone],inhibition at 10 µM,[1]; [6],-22%
same,inhibition at 10 µM,[2]; [7],4%
same,Quadrant (FIG. 5b),[3]; [8],Q4
same,LPS % cell toxicity,primary rat microglia [4]; [9],0%
same,Fibrin % cell toxicity,primary rat microglia [5]; [10],1%
C[C@H](Cn1cnc2c(N)ncnc21)OCP(=O)(O)O [Tenofovir],Fibrin % inhibition,[1]; [6],−10%
same,LPS % inhibition,[2]; [7],17%
same,Quadrant (FIG. 5b),[3]; [8],Q4
same,LPS % cell toxicity,primary rat microglia [4]; [9],0%
same,Fibrin % cell toxicity,primary rat microglia [5]; [10],0%
CC1CCCC(C)N1 (stereo not drawn) [Nanofin],Fibrin % inhibition,[1]; [11],17%
same,LPS % inhibition,[2]; [12],12%
same,Quadrant (FIG. 5b),[3]; [13],Q4
same,LPS % cell toxicity,primary rat microglia [4]; [14],0%
same,Fibrin % cell toxicity,primary rat microglia [5]; [15],1%
CC(=O)O[C@H]1C[C@@H]2CC[C@@H]3[C@H](CC[C@@]4(C)[C@H]3C[C@H]([N+]3(C)CCCCC3)[C@@H]4OC(C)=O)[C@@]2(C)C[C@@H]1N1CCCCC1 [Vecuronium Bromide],Fibrin % inhibition,[1]; [6],7%
same,LPS % inhibition,[2]; [7],23%
same,Quadrant (FIG. 5b),[3]; [8],Q4
same,LPS % cell toxicity,primary rat microglia [4]; [9],0%
same,Fibrin % cell toxicity,primary rat microglia [5]; [10],1%
C[C@@H](O)[C@@H]1NC(=O)[C@H](CCCCN)NC(=O)[C@@H](Cc2c[nH]c3ccccc23)NC(=O)[C@H](Cc2ccccc2)NC(=O)[C@@H](NC(=O)[C@H](N)Cc2ccccc2)CSSC[C@@H](C(=O)N[C@H](CO)[C@@H](C)O)NC1=O [Octreotide],Fibrin % inhibition,[1]; [11],3%
same,LPS % inhibition,[2]; [12],−5%
same,Quadrant (FIG. 5b),[3]; [13],Q4
same,LPS % cell toxicity,primary rat microglia [4]; [14],1%
same,Fibrin % cell toxicity,primary rat microglia [5]; [15],1%
CC(C)(C)NC[C@H](O)COc1nsnc1N1CCOCC1 [Timolol],Fibrin % inhibition,[1]; [6],11%
same,LPS % inhibition,[2]; [7],−7%
same,Quadrant (FIG. 5b),[3]; [8],Q4
same,LPS % cell toxicity,primary rat microglia [4]; [9],0%
same,Fibrin % cell toxicity,primary rat microglia [5]; [10],1%
CC(=O)Oc1ccccc1C(=O)Nc1ncc([N+](=O)[O-])s1 [Nitazoxanide],inhibition at 10 µM,[1]; [11],-16%
same,inhibition at 10 µM,[2]; [16],22%
same,Quadrant (FIG. 5b),[3]; [13],Q4
same,LPS % cell toxicity,primary rat microglia [4]; [14],0%
same,Fibrin % cell toxicity,primary rat microglia [5]; [15],1%
CCCCC(=O)N(Cc1ccc(-c2ccccc2-c2nnn[nH]2)cc1)[C@H](C(=O)O)C(C)C [Valsartan],inhibition at 10 µM,[1],-17%
same,inhibition at 10 µM,[2],12%
same,Quadrant (FIG. 5b),[3]; [8],Q4
same,LPS % cell toxicity,primary rat microglia [4]; [9],0%
same,Fibrin % cell toxicity,primary rat microglia [5]; [10],0%
CC(C(=O)O)c1ccc(N2Cc3ccccc3C2=O)cc1 (stereo not drawn) [Indoprofen],inhibition at 10 µM,[1]; [17],-34%
same,inhibition at 10 µM,[2]; [18],18%
same,Quadrant (FIG. 5b),[3]; [13],Q4
same,LPS % cell toxicity,primary rat microglia [4]; [19],0%
same,Fibrin % cell toxicity,primary rat microglia [5]; [20],1%
Chiniofon,Fibrin % inhibition,"[1]; primary HTS, 10 μM, fibrin-stimulated primary microglia",−52%
same,LPS % inhibition,"[2]; primary HTS, 10 μM, LPS-stimulated primary microglia",−1%
same,Quadrant (FIG. 5b),"[3]; primary HTS, 10 μM",Q4
same,LPS % cell toxicity,"primary rat microglia [4]; primary HTS, 10 μM, LPS assay, dead cells size <150 μm2",1%
same,Fibrin % cell toxicity,"primary rat microglia [5]; primary HTS, 10 μM, fibrin assay, dead cells size <150 μm2",1%
C[C@@H]1O[C@@H]1P(=O)(O)O [Fosphomycin],Fibrin % inhibition,[1]; [17],4%
same,LPS % inhibition,"[2]; primary microglia HTS, LPS stimulation, activation = cell size >800 μm2",12%
same,Quadrant (FIG. 5b),[3]; [13],Q4
same,LPS % cell toxicity,primary rat microglia [4]; [19],0%
same,Fibrin % cell toxicity,primary rat microglia [5]; [20],1%
"N[C@@H](Cc1cc(I)c(Oc2cc(I)c(O)c(I)c2)c(I)c1)C(=O)O [Thyroxine, Levothyroxine]",Fibrin % inhibition,[1]; [6],5%
same,LPS % inhibition,[2]; [7],25%
same,Quadrant (FIG. 5b),[3]; [8],Q4
same,LPS % cell toxicity,primary rat microglia [4]; [9],1%
same,Fibrin % cell toxicity,primary rat microglia [5]; [10],1%
O=C1NCC2(CCN(CCc3ccccc3)CC2)O1 [Fenspiride],inhibition at 10 µM,[1]; [17],-43%
same,inhibition at 10 µM,[2]; [18],-1%
same,Quadrant (FIG. 5b),[3]; [13],Q4
same,LPS % cell toxicity,primary rat microglia [4]; [19],0%
same,Fibrin % cell toxicity,primary rat microglia [5]; [20],1%
CO[C@H]1C[C@H](O[C@H]2[C@H](C)[C@@H](O[C@@H]3O[C@H](C)C[C@H](N(C)C)[C@H]3O)[C@@H](C)C[C@@]3(CO3)C(=O)[C@H](C)[C@@H](O)[C@@H](C)[C@@H](C)OC(=O)[C@@H]2C)O[C@@H](C)[C@@H]1O [Oleandomycin Phosphate],inhibition at 10 µM,[1]; [11],-9%
same,inhibition at 10 µM,[2]; [16],16%
same,Quadrant (FIG. 5b),[3]; [13],Q4
same,LPS % cell toxicity,primary rat microglia [4]; [14],0%
same,Fibrin % cell toxicity,primary rat microglia [5]; [15],1%
COc1ccc(C(=O)c2ccccc2)c(O)c1 [Oxybenzone],inhibition at 10 µM,[1]; [11],-15%
same,inhibition at 10 µM,[2]; [16],12%
same,Quadrant (FIG. 5b),[3]; [13],Q4
same,LPS % cell toxicity,primary rat microglia [4]; [14],0%
same,Fibrin % cell toxicity,primary rat microglia [5]; [15],0%
